The target in the experiment is h2E2 humanized anti-cocaine mAb. In words: differential scanning fluorimetry. The following applies: read-out: Avg Kd (nM) ± Std. Dev. (fold increase vs unmodified h2E2 mAb). The class given is binding, Homo sapiens. Background: In DSF a fluorescence change marks the thermal transition of the protein.

On to `CN1[C@H]2CC[C@@H]1[C@@H](C(=O)O)[C@@H](OC(=O)c1ccccc1)C2` [BE, benzoylecgonine], for which the Kd came out at 177 ± 14 nM.

In the case of `CCOC(=O)[C@H]1[C@@H](OC(=O)c2ccccc2)C[C@@H]2CC[C@H]1N2C` [CE, cocaethylene], the Kd turned out to be 20.7 ± 4.1 nM.

`COC(=O)[C@H]1[C@@H](OC(=O)c2ccccc2)C[C@@H]2CC[C@H]1N2C` [Coc, cocaine]: the Kd amounted to 53 ± 6.8 nM.

These data come from article PMC9115314 (Biochemistry and Biophysics Reports, 2022).
